The source of these data is patent US9963462B2 (priority 2015, dated 2018).

The subject of test [1] is BH4 production in human peripheral blood mononuclear cells (PBMCs). Nature of the test: hPBMC assay, inhibition of BH4 production by LC-MS (anti-CD3/anti-CD28 stimulated). The test is classed as cell-based. The note with it: PBMC, read-out: hPBMC IC50.
Test [2] deals with SNAP-hSPR (sepiapterin reductase, SPR) (Homo sapiens, UniProt P35270). Nature of the test: biochemical. The conditions noted are these: terbium labelled SNAP-hSPR / SSZ labelled SNAP-EGFP; read-out: hTR-FRET IC50. It is filed as binding.
From the text: TR-FRET Assay: A TR-FRET (homogeneous, time-resolved, fluorescence resonance energy transfer) assay was used to assess activity of compounds following standard assay conditions. […] Compounds were screened at different concentrations and IC50 values calculated.
Terbium labelled SNAP-hSPR and SSZ (sulfasalazine) labelled SNAP-EGFP were used as the protein pair in this assay. Compounds were screened at different concentrations, and 1050 and Kd values calculated.

The structures appear in SMILES notation.

Sequence of SNAP-hSPR (sepiapterin reductase, SPR) (P35270 whole entry): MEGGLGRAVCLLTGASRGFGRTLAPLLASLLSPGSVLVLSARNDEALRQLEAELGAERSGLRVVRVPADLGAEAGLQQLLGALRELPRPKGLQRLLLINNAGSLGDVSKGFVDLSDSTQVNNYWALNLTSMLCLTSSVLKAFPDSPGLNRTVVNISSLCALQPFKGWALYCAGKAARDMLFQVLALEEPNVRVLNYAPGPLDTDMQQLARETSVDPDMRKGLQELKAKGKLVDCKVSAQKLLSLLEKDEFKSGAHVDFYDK

In general, IC50 refers to the concentration at which inhibition is half-maximal. For the compound `Cc1c(C(=O)N2CCC(C3(C#N)CCC3)CC2)cnn1-c1nc2c(c(=O)[nH]1)CCC2` [Q-1087], the IC50 in test [1] came out at 0.029 µM; in test [2], 0.002 µM.
For `Cc1c(C(=O)N2CCC3(CC2)CC3C(=O)N2CCC2)cnn1-c1nn2cccc2c(=O)[nH]1` (centres unmarked) [Q-1088] the same measures were 0.29 µM and 0.004 µM.
The corresponding values for `Cc1c(C(=O)N2CCC3(CC2)CC3C(=O)N2CCC2)cnn1-c1nc2c(c(=O)[nH]1)CCC2` (centres unmarked) [Q-1089] are 0.35 µM and 0.003 µM.
The corresponding values for `Cc1c(C(=O)N2CCC(c3nc(C(N)=O)cs3)CC2)cnn1-c1nc2c(c(=O)[nH]1)CCC2` [Q-1091] are 0.13 µM and 0.002 µM.
Consider `Cc1c(C(=O)N2CCC(O)(C3(C#N)CC3)CC2)cnn1-c1nn2cccc2c(=O)[nH]1` [Q-1092], for which the IC50 in test [1] was determined as 0.33 µM; in test [2], 0.001 µM.
For the compound `Cc1c(C(=O)N2CCC(c3nc(C#N)cs3)CC2)cnn1-c1nn2cccc2c(=O)[nH]1` [Q-1093], the IC50 in test [1] is 0.095 µM; in test [2], 0.001 µM.
The corresponding values for `Cc1c(C(=O)N2C3CCC2CN(C2CC2)C3)cnn1-c1nn2cccc2c(=O)[nH]1` [Q-1094] are 0.099 µM and 0.001 µM.
Consider `C=C(C1CCN(C(=O)c2cnn(-c3nn4cccc4c(=O)[nH]3)c2C)CC1)C(F)(F)F` [Q-1095], for which the results for the IC50 in test [1] and in test [2] were 0.027 µM and 0.001 µM, respectively.
For `C=C(C1CCN(C(=O)c2cnn(-c3nc4c(c(=O)[nH]3)CCC4)c2C)CC1)C(F)(F)F` [Q-1096] the same measures were 0.018 µM and 0.001 µM.
Turning to `Cc1c(C(=O)N2CCC(c3nc(-c4cccnc4)cs3)CC2)cnn1-c1nn2cccc2c(=O)[nH]1` [Q-1097], the IC50 in test [1] was 0.024 µM; in test [2], 0.001 µM.
The corresponding values for `Cc1c(C(=O)N2CCC(CCCF)C2)cnn1-c1nn2cccc2c(=O)[nH]1` (centres unmarked) [Q-1098] are 0.21 µM and 0.001 µM.
The corresponding values for `Cc1c(C(=O)N2CCC(c3nc(-c4ccccn4)cs3)CC2)cnn1-c1nn2cccc2c(=O)[nH]1` [Q-1099] are 0.06 µM and 0.001 µM.
For `Cc1c(C(=O)N2CCC(c3nc(-c4ccccn4)cs3)CC2)cnn1-c1nc2c(c(=O)[nH]1)CCC2` [Q-1100], the IC50 in test [1] stood at 0.031 µM; in test [2], 0.001 µM.
As for `Cc1c(C(=O)N2CCC(c3nc(-c4ccncc4)cs3)CC2)cnn1-c1nn2cccc2c(=O)[nH]1` [Q-1101], the values for the IC50 in test [1] and in test [2] were 0.041 µM and 0.001 µM, respectively.
As for `CCC(C#N)C1(F)CCN(C(=O)c2cnn(-c3nc4c(c(=O)[nH]3)CCC4)c2C)CC1` (centres unmarked) [Q-1102], the values for the concentration for half-maximal inhibition (IC50) in test [1] and in test [2] were 0.058 µM and 0.001 µM, respectively.
With `CCC(C#N)C1=CCN(C(=O)c2cnn(-c3nc4c(c(=O)[nH]3)CCC4)c2C)CC1` (centres unmarked) [Q-1103], the IC50 in test [1] turned out to be 0.1 µM; in test [2], 0.001 µM.
The corresponding values for `Cc1c(C(=O)N2CCC(c3nc(C#N)cs3)CC2)cnn1-c1nc2c(c(=O)[nH]1)CCC2` [Q-1104] are 0.11 µM and 0.003 µM.
For `Cc1c(C(=O)N2CCC(c3ccc(F)nc3)CC2)cnn1-c1nn2cccc2c(=O)[nH]1` [Q-1105], the IC50 in test [1] was 0.018 µM; in test [2] it was 0.001 µM.
Consider `Cc1c(C(=O)N2CC3CC(C2)N3CC(F)(F)F)cnn1-c1nn2cccc2c(=O)[nH]1` [Q-1106], for which the IC50 in test [1] amounted to 0.093 µM; in test [2], 0.001 µM.
For `Cc1c(C(=O)N2C3CCC2CN(c2nccs2)C3)cnn1-c1nn2cccc2c(=O)[nH]1` [Q-1107] the same measures were 0.058 µM and 0.001 µM.
The corresponding values for `Cc1c(C(=O)N2CCC(c3nc(C(F)(F)F)cs3)CC2)cnn1-c1nn2cccc2c(=O)[nH]1` [Q-1108] are 0.05 µM and 0.001 µM.
The corresponding values for `Cc1c(C(=O)N2CC3CCCC(C2)C3(O)C(F)(F)F)cnn1-c1nn2cccc2c(=O)[nH]1` (centres unmarked) [Q-1109] are 0.046 µM and 0.001 µM.
